Data: patent publication US20250360130A1, “METHODS OF TREATING INDOLENT SYSTEMIC MASTOCYTOSIS” (Telios Pharma Inc., priority 2024, published 2025)

Experiments:
basophils = test: Comparison of BTK inhibitors by BAT (CD63, CD203c); format: cell-based, human; conditions: concentration of 1 μM, 2 hours, blood from a healthy donor
Description: The BAT assay using the Flow Cast Basophil Activation Kit (Buhlmann Diagnostics; Catalog #B-CCR-STCON) was then conducted following manufacturer instructions by (1) stimulating the blood with anti-FcεR stimulation control in stimulation buffer with IL-3 and staining cells for CCR3 and CD63 for 15 minutes at 37° C., (2) lysing red blood cells and fixing cells with Lysing Reagent at room temperature for 10 minutes, (3) washing cells with Wash Buffer, and (4) acquiring data on a flow cytometer. Activated basophils were defined as CCR3+, low side scatter and CD63+. Percent of activated basophils was calculated as number of activated basophils over the total number of basophils. A four-parameter logistic regression was applied to determine the EC50 and EC90.
Blood samples were gently rocked at room temperature for 2 hours. […] Activated basophils were also defined as CCR3+, low side scatter and CD203c+.

mast cells = test: Phosphorylation and degranulation of antigen-stimulated mast cells grown with chronic SCF (FIG. 21); format: cell-based; conditions: 1 μM, antigen 15 minutes
Description: Histamine release, CD63 expression, CD203c expression, pBTK (Y223) levels, pP38 (T180/Y182) levels, pPLCg1 (S1248) levels, pERK (T202/Y204) levels, and pS6 (S235/236) levels are shown. Mast cells were grown with continuous (chronic) exposure to SCF and then stimulated with antigen (Ag) for 15 minutes, leading to phosphorylation of multiple kinases, including pBTK, […], pP38, pERK, and pS6 ribosome. This stimulation increases degranulation markers, including CD63, CD203c, and histamine release.

ISM patients = conditions: cited from earlier work
[1] = system: subjects with AdvSM and ISM; conditions: cited from earlier work
humans = conditions: cited from earlier work

## CC#CC(=O)N1CCC[C@H]1c1nc(-c2ccc(C(=O)Nc3ccccn3)cc2)c2c(N)nccn12 [acalabrutinib, Acalabrutinib ((S)-4-(8-amino-3-(1-(but-2-ynoyl)pyrrolidin-2-yl)imidazo[1,5-a]pyrazin-1-yl)-N-(pyridin-2-yl)benzamide), reference compound]
basophils
  basophil activation (CD63+, CD203c+): no effect on basophil activation

## Cn1cc(-c2cc3c(N4CCN(c5ncc([C@@](C)(N)c6ccc(F)cc6)cn5)CC4)ncnn3c2)cn1 [avapritinib]
Mast cells
  activation (phosphorylation and degranulation) of mast cells: only partially inhibits activation
ISM patients; 25 mg QD, week 24, ISM patients
  reduction of total symptom score compared to the placebo: 5.7 points
ISM patients; 25 mg QD
  ISM patients with dose interruptions due to adverse reactions: 5%
ISM patients; ISM patients, first 6 months of treatment
  treated subjects who failed to achieve a mean symptom score reduction of 30%: approximately half
ISM patients; ISM patients, within the first 6 months of treatment
  subjects who achieved a 50% symptom score reduction: about a third

## Cc1nc(Nc2ncc(C(=O)Nc3c(C)cccc3Cl)s2)cc(N2CCN(CCO)CC2)n1 [dasatinib]
[1]; 15 subjects with AdvSM and 18 subjects with ISM, overall
  subjects who discontinued treatment due to toxicity: 34%
[1]; overall study population
  pleural effusion, grade 3 adverse event, patients overall: 10%

## C=CC(=O)N1CCC[C@@H](n2nc(-c3ccc(Oc4ccccc4)cc3)c3c(N)ncnc32)C1 [ibrutinib, Ibrutinib (1-[(3R)-3-[4-amino-3-(4-phenoxyphenyl)pyrazolo[3,4-d]pyrimidin-1-yl]piperidin-1-yl]prop-2-en-1-one)]
humans
  adverse events associated with administration: heightened risk of atrial fibrillation, hypertension, major bleeding events, and cytopenias
